Data on twelve compounds can be found in ChEMBL document CHEMBL1201862, “PubChem BioAssay data set” (2004).

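48-hour exposure; five concentrations; linearly interpolated endpoints. GI50: concentration for 50% inhibition of growth.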 Active and inactive are the calls of the source. No stated cut-off is given here; in the data, active = GI50 up to about 1.1 µM and inactive = higher.

Common to all, as to experiment: inhibition of tumour cell growth, NCI panel, 48 h
Assay [1] has as its system Malme-3M.
The subject of assay [2] is MCF7.
For assay [3], the system named is HCT-116.
Assay [4] concerns 786-0.
Assay [5] concerns NCI-H522.
Assay [6] has as its system CAKI-1.
The subject of assay [7] is NCI-H460.
Assay [8] concerns OVCAR-8.
Assay [9] deals with PC-3.
The subject of assay [10] is Hs-578T.
In assay [11] the test system is EKVX.
In assay [12] the test system is SNB-19.
The test system of assay [13] is OVCAR-4.
Assay [14] relates to UACC-62.
The test system of assay [15] is SN12C.
For assay [16], the system named is HL-60.
Assay [17] deals with MOLT-4.
The subject of assay [18] is HCC 2998.

Turning to `O=C(c1cccc(F)c1F)N1CCc2c([nH]c3ccccc23)C1c1ccc2c(c1)OCO2` (centres undefined), the GI50 was 28.4 µM (inactive) in assay [1]; 4.27 µM (inactive) in assay [2]; 8 µM (inactive) in [3]; 22.5 µM (inactive) in assay [4]; 7.8 µM (inactive) in assay [5]; 15.5 µM (inactive) in assay [6]. The GI50 was 6.56 µM (inactive) in assay [7]; 31.3 µM (inactive) in [8]; 2.97 µM (inactive) in assay [9]; 23.8 µM (inactive) in assay [10]; 8.32 µM (inactive) in assay [11]; 7.76 µM (inactive) in [12]. In addition, the GI50 in assay [13] was 11.1 µM (inactive); in assay [14], 5.24 µM (inactive); in assay [15], 14.3 µM (inactive); in assay [16], 3.4 µM (inactive); in assay [17], 5.24 µM (inactive).

For the compound `CO/N=C\c1ccc2c(c1)Sc1ccccc1O2`, the GI50 in [1] is 31.4 µM (inactive); in assay [2], 34.7 µM (inactive); in assay [3], 40.3 µM (inactive); in assay [4] it was 69.5 µM (inactive); in [6], > 100 µM (inactive); in assay [7] it was 40.2 µM (inactive). Further, the GI50 was 95.9 µM (inactive) in assay [8]; 45.7 µM (inactive) in assay [18]; 51.9 µM (inactive) in assay [9]; 30.9 µM (inactive) in assay [10]; 30.2 µM (inactive) in [11]; > 100 µM (inactive) in [12]. The GI50 in assay [13] was 43.9 µM (inactive); in [14] it was 71.1 µM (inactive); in assay [15], > 100 µM (inactive); in [16] it was 26.2 µM (inactive); in assay [17], 54.7 µM (inactive).

As for `CC(C(=O)N1c2ccccc2Sc2ccccc21)N1c2ccccc2Sc2ccccc21` (centres undefined), the GI50 in assay [1] is > 100 µM (inactive); in assay [2], 42.9 µM (inactive); in [3] it was > 100 µM (inactive); in assay [4], 88.1 µM (inactive); in assay [7] it was > 100 µM (inactive); in assay [8] it was 97.1 µM (inactive). For the same compound, the GI50 was 97.5 µM (inactive) in [9]; > 100 µM (inactive) in assay [10]; > 100 µM (inactive) in assay [11]; > 100 µM (inactive) in [12]; > 100 µM (inactive) in assay [13]; > 100 µM (inactive) in [14]. The GI50 in assay [15] was > 100 µM (inactive); in assay [16], 77.6 µM (inactive); in assay [17], 42.9 µM (inactive).

In the case of `COc1cc2c(/C=C3/C(=O)Nc4cc(C)c(O)cc43)c(Cl)[nH]c2cc1C`, the GI50 is 0.407 µM (active) in assay [1]; 1.8 µM (inactive) in [2]; 2.64 µM (inactive) in assay [3]; 2.59 µM (inactive) in [4]; 2.98 µM (inactive) in [5]; 2.55 µM (inactive) in assay [6]. Also, the GI50 is 2.51 µM (inactive) in assay [7]; 3.69 µM (inactive) in [8]; 3.18 µM (inactive) in [9]; 2.13 µM (inactive) in assay [10]; 2.82 µM (inactive) in [12]; 4.31 µM (inactive) in [13]. The GI50 in assay [14] was 1.96 µM (inactive); in [15], 2.4 µM (inactive); in assay [16] it was 1.86 µM (inactive); in assay [17], 0.148 µM (active).

Take `Cc1cccc(Nc2nn3c(=O)c4c5c(sc4nc3s2)CCCC5)c1`: the GI50 in assay [1] is 3.15 µM (inactive); in [2], 6.17 µM (inactive); in assay [3], 22.9 µM (inactive); in assay [4] it was 45.9 µM (inactive); in assay [5], 4.35 µM (inactive); in assay [6], 9.93 µM (inactive). In addition, the GI50 in [7] was 6.24 µM (inactive); in [8], 12.4 µM (inactive); in [9], 38.7 µM (inactive); in assay [10] it was 6.04 µM (inactive); in [12], > 100 µM (inactive); in assay [13] it was 16 µM (inactive). Besides, the GI50 is 0.647 µM (active) in [14], 66.7 µM (inactive) in assay [15], 23.4 µM (inactive) in assay [16] and 48.4 µM (inactive) in [17].

In the case of `Cc1nc2cn3c(c2c(=O)[nH]1)CCCCC3`, the GI50 in [2], in assay [3], in assay [4], in [6], in assay [7] and in [8] was > 100 µM (inactive) in each case. Moreover, the GI50 in assay [18], in assay [9], in assay [10], in assay [11], in assay [12] and in [13] was > 100 µM (inactive) each time. The GI50 in assay [14], in assay [16] and in assay [17] was > 100 µM (inactive) each time.

Consider `COc1ccc(/C=C2\CCC(C)/C(=C\c3ccc(OC)c(OC)c3)C2=O)cc1OC` (centres undefined), for which the GI50 in assay [1] was 4.58 µM (inactive); in assay [2], 4.85 µM (inactive); in [3], 3.78 µM (inactive); in assay [4] it was 5.11 µM (inactive); in [6] it was 5.82 µM (inactive); in [8], 3.76 µM (inactive). The GI50 in assay [9] was 3.39 µM (inactive); in assay [10], 12.6 µM (inactive); in assay [11], 2.13 µM (inactive); in assay [12], 11.2 µM (inactive); in [14], 6.21 µM (inactive); in assay [15], 7.29 µM (inactive). Also, the GI50 in assay [16] was 1.73 µM (inactive); in assay [17], 3.23 µM (inactive).

On to `Cc1ccc2nc(-c3ccc(N4C(=O)C(Cl)C4c4ccc(Cl)cc4)cc3)sc2c1` (centres undefined), for which the GI50 in assay [1] is 28.8 µM (inactive); in assay [2] it was 14.6 µM (inactive); in [3] it was 21.6 µM (inactive); in assay [4], 21.9 µM (inactive); in assay [6] it was 15.5 µM (inactive); in assay [7] it was 21.9 µM (inactive). Moreover, the GI50 was 28.5 µM (inactive) in [8]; 10.5 µM (inactive) in assay [9]; 23.3 µM (inactive) in assay [10]; 2.62 µM (inactive) in [11]; 33.1 µM (inactive) in assay [12]; 1.95 µM (inactive) in [13]. Moreover, the GI50 is 15.3 µM (inactive) in assay [14], 19.9 µM (inactive) in assay [15] and 29.9 µM (inactive) in assay [16].

As to `Brc1ccc2c3c1[C@H]1O[C@H]1c1cccc(c1-3)[C@@H]1O[C@H]21`, the GI50 in assay [1] was 17.8 µM (inactive); in assay [2] it was 17.4 µM (inactive); in assay [3], 13.2 µM (inactive); in assay [4] it was 12.4 µM (inactive); in assay [5] it was 10.4 µM (inactive); in [6], 17.8 µM (inactive). The GI50 in [8] is 15.6 µM (inactive); in assay [9] it was 16.8 µM (inactive); in assay [10], 23.1 µM (inactive); in assay [11], 18.6 µM (inactive); in assay [12] it was 18 µM (inactive); in [13], 15.1 µM (inactive). The GI50 is 16.8 µM (inactive) in assay [14], 17.6 µM (inactive) in [15] and 3.61 µM (inactive) in assay [17].

Regarding `Cc1ccc(S(=O)(=O)N/N=C2/CCC(C(C)(C)C)CC2Br)cc1` (centres undefined), the GI50 in [1] was 16.3 µM (inactive); in assay [2], 22.7 µM (inactive); in [3] it was 23.1 µM (inactive); in [4], 31.2 µM (inactive); in [5] it was 18.2 µM (inactive); in assay [6], 28.1 µM (inactive). Besides, the GI50 in assay [7] is 34.1 µM (inactive); in assay [8] it was 26.4 µM (inactive); in assay [9], 25.6 µM (inactive); in assay [10], 17.2 µM (inactive); in assay [11], 36.6 µM (inactive); in assay [12], 36.6 µM (inactive). Besides, the GI50 in assay [13] was 19.5 µM (inactive); in assay [14], > 10 µM (inactive); in assay [15] it was 17.3 µM (inactive); in assay [16] it was 41.9 µM (inactive); in [17] it was 20 µM (inactive).

In the case of `CC1C2C=CC1C(c1c3ccc(=O)c(O)c-3oc3c(O)c(O)ccc13)C2C(=O)O` (centres undefined), the GI50 was 20.7 µM (inactive) in assay [2]; 27.8 µM (inactive) in assay [3]; 61 µM (inactive) in assay [4]; > 100 µM (inactive) in assay [6]; > 100 µM (inactive) in assay [7]; > 100 µM (inactive) in assay [8]. Also, the GI50 in assay [18] is > 100 µM (inactive); in assay [9], > 100 µM (inactive); in [10], 89.5 µM (inactive); in assay [11], 50.9 µM (inactive); in assay [12] it was > 100 µM (inactive); in assay [13] it was 78.9 µM (inactive). The GI50 was > 100 µM (inactive) in [14], 24 µM (inactive) in [15], 44.3 µM (inactive) in assay [16] and 21.6 µM (inactive) in assay [17].

For the compound `OC[C@H]1O[C@@H]2O[C@@](COCc3ccccc3)([C@H](OCc3ccccc3)[C@H]2O)[C@@H]1OCc1ccccc1`, the GI50 in [2] was 20.6 µM (inactive); in assay [3] it was 16.5 µM (inactive); in assay [4], 17 µM (inactive); in [5], 17.3 µM (inactive); in [6] it was 15.7 µM (inactive); in [7], 17 µM (inactive). Further, the GI50 in [8] is 14.6 µM (inactive); in [9], 14.2 µM (inactive); in [10], 7.4 µM (inactive); in assay [11] it was 14.1 µM (inactive); in assay [12], 17.6 µM (inactive); in assay [13], 2.99 µM (inactive). In addition, the GI50 in [14] was 14.4 µM (inactive); in assay [15] it was 15.7 µM (inactive); in assay [16], 18.2 µM (inactive); in assay [17], 4.98 µM (inactive).
